Results taken from publication PMC10656235, “Reversible and irreversible inhibitors of coronavirus Nsp15 endoribonuclease” (The Journal of Biological Chemistry, 2023).
Several values for one entry are separate records, joined by “and”; a condition that tells them apart may be missing. Identical values can stand only once. Entries after “also recorded” stand apart in the source; their conditions may differ. Like-named read-outs stand apart in the source and are kept apart here.

How the values were obtained:
[1] = biological target: T1, SARS-CoV-2 Nsp15 (Severe acute respiratory syndrome coronavirus 2, UniProt P0DTD1)
[2] = biological target: T1, SARS-CoV-2 Nsp15; test: Nsp15 FRET-based activity assay; format: biochemical; details: for Nsp15 inhibition with 5′FAM and 5′Cy5 substrates and quenching: compounds at 25 μM and 50 μM
[3] = biological target: T1, SARS-CoV-2 Nsp15; test: Nsp15 native RNA cleavage assay (denaturing PAGE, SYBR Gold); format: biochemical
[4] = biological target: T1, SARS-CoV-2 Nsp15; test: FRET assay with nonionic detergent (colloidal aggregate test); format: biochemical; details: 0.01% Triton-X or CHAPS
[5] = biological target: T1, SARS-CoV-2 Nsp15; test: biochemical; format: biochemical
[6] = biological target: T1, SARS-CoV-2 Nsp15; test: Reversibility: reaction progress after dilution of preincubated enzyme-inhibitor complex; format: biochemical; details: 60 min preincubation, 1:50 dilution
[7] = system: SARS-CoV-2; test: microbe, parasite or virus in culture; format: cell-based; details: for Viral titers at a single subtoxic concentration: MOI = 0.1, 24 h postinfection, vs DMSO; for Selectivity index: from CC50 and cellular IC50 in Vero CCL-81 cells
[8] = biological target: MERS Nsp15 (Middle East respiratory syndrome-related coronavirus, UniProt K9N7C7); format: biochemical
MERS Nsp15, sequence (K9N7C7 6433-6775 limits assumed): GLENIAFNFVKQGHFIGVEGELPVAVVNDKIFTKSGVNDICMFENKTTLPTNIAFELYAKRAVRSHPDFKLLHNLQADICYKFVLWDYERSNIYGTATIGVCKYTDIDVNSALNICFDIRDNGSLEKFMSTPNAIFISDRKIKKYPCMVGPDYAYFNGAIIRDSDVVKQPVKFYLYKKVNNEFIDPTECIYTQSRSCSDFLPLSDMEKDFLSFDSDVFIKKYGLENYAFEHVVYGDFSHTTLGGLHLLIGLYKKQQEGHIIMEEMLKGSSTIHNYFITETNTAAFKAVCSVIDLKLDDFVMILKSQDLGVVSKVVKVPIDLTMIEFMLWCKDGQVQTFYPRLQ

[9] = Cell cytotoxicity assay (CellTiter-Glo); details: African green monkey, CC50, 24 h
[10] = biological target: T1, SARS-CoV-2 Nsp15; test: Effect of DTT on compound inhibition of Nsp15; format: biochemical; details: 10 mM vs 1 mM DTT
[11] = biological target: T1, SARS-CoV-2 Nsp15; test: MALDI-TOF mass spectrometry of Nsp15 preincubated with compound; details: preincubation with fivefold molar excess of compound
[12] = biological target: SARS-CoV-1 Nsp15 (Severe acute respiratory syndrome coronavirus, UniProt P0C6X7); format: biochemical
[13] = in vitro; details: African green monkey
[14] = system: Calu-3 cells; parameters: method as in PMID 33886614; details: cited from earlier work
[15] = IC50, Nsp15 activity, FRET assay, Nsp15 1 ng/μl, ~12 min at 37 °C
[16] = 31-nt single rU RNA, 1 h at 37 °C
[17] = RNA substrate titration 0 to 10 µM
[18] = extra sum-of-squares F test, highest inhibitor dose
[19] = Severe acute respiratory syndrome coronavirus 2, 24 h, read-out: IC50, viral inhibition, Vero CCL-81 cells, MOI = 0.1, 24 h infection
[20] = read-out: IC50, viral inhibition, Vero CCL-81 cells, MOI = 0.1, 24 h infection

Row | Molecule | IC50 [2, 15] | Nsp15 inhibition with 5′FAM and 5′Cy5 substrates and quenching [2] | Inhibition of native RNA substrate cleavage [3, 16] | Change of Nsp15 activity with inhibitor when detergent is present [4] | Ki [5] | Kinetic mechanism / predicted type of inhibition [5, 17] | Km diff. vs DMSO [5, 18] | Vmax diff. vs DMSO [5, 18] | Reversibility of inhibition [6] | Viral titers at a single subtoxic concentration ([7]; Vero CCL-81 cells) | Inhibition of MERS Nsp15 [8] | CC50 at 24 h ([9]; Fig. S15) | further results
1 | 5′-FAM-CAACUAAACGAAC-BHQ1-3′ [RNA2] | – | – | – | – | – | – | – | – | – | – | – | – | Vmax [1]: ~0.3 µM/min; Km ([1]; read-out: Km of substrate): ~3 µM
2 | CC(=O)Nc1ccc(NS(=O)(=O)c2ccc3c(c2)C(=O)c2ccccc2C3=O)cc1 [CID5220994] | ~50 µM and 50.9 µM | inhibited Nsp15 using either substrate, without appreciable quenching | dose-dependent effects | higher increase in activity | 72.9 ± 11.6 µM | competitive with substrate | Yes | No | Nsp15 activity was restored | not statistically different from the control | only modest effects | 15 to 42 µM | Vmax (best-fit) ([5]; inhibitor 50µM): 0.31 µM/min; Vmax (best-fit) ([5]; inhibitor 100µM): 0.28 µM/min
3 | O=C(N/N=C/c1ccccc1O)c1ccc(O)c(O)c1 [CID5266986] | ~78 µM and 78 µM | inhibited Nsp15 using either substrate, without appreciable quenching | dose-dependent effects | increase in Nsp15 activity | 64.9 ± 16.9 µM | mixed mechanisms of inhibition | Yes | Yes | Nsp15 activity was restored | not statistically different from the control | only modest effects | 15 to 42 µM | Vmax (best-fit) ([5]; inhibitor 125µM): 0.22 µM/min; Vmax (best-fit) ([5]; inhibitor 175µM): 0.21 µM/min
4 | O=C1/C(=C/c2cc([N+](=O)[O-])cc(Br)c2O)SC(=S)N1Cc1ccccc1 [CID5675221] | ~20 µM and 20.7 µM | inhibited Nsp15 using either substrate, without appreciable quenching | dose-dependent effects | increase in Nsp15 activity | 6.71 ± 2.31 µM | mixed mechanisms of inhibition | Yes | Yes | Nsp15 activity was restored | significantly reduced viral titers | – | > 240 µM | Vmax (best-fit) ([5]; inhibitor 15µM): 0.21 µM/min; Vmax (best-fit) ([5]; inhibitor 30µM): 0.17 µM/min; IC50 [7, 19]: 19 ± 3.9 µM; Selectivity index [7]: ~15; IC50 [7, 20]: ~20 µM and < 20 µM; CC50 at 24 h ([9]; measured in parallel with viral inhibition, Fig. 6): 290 ± 28 µM
5 | Oc1ccc2ccccc2c1SSc1c(O)ccc2ccccc12 [IPA-3, reference compound] | – | inhibited Nsp15 using either substrate, without appreciable quenching | dose-dependent effects | increase in Nsp15 activity | – | noncompetitive | No | Yes | irreversible | significantly reduced viral titers | only modest effects; also recorded: reduced effect | – | IC50 ([2]; FRET assay, Nsp15 1 ng/μl, ~12 min at 37 °C, read-out: IC50, Nsp15 activity): ~7 µM and 6.8 µM; Ki ([5]; fit to Michaelis-Menten inhibition models, read-out: Computed Ki ± SE): 10.8 ± 0.87 µM; Vmax (best-fit) ([5]; inhibitor 5µM): 0.23 µM/min; Vmax (best-fit) ([5]; inhibitor 20µM): 0.11 µM/min; Effect of excess DTT on inhibition [10]: excess DTT nearly completely reversed inhibition; Peak shift of Nsp15 versus apoprotein [11]: ~333 Da; IC50 ([7]; Severe acute respiratory syndrome coronavirus 2, 24 h, Vero CCL-81 cells, MOI = 0.1, 24 h infection, read-out: IC50, viral inhibition): 8.5 ± 1.1 µM; IC50 ([7]; Vero CCL-81 cells, MOI = 0.1, 24 h infection, read-out: IC50, viral inhibition): 10 µM; Selectivity index [7]: ~5; Inhibition of SARS-CoV-1 Nsp15 [12]: equal potency; CC50 at 24 h [13]: 43 ± 4.8 µM
6 | Nc1c(S(=O)(=O)O)cc(Nc2ccc(Nc3nc(Cl)nc(Nc4cccc(S(=O)(=O)O)c4)n3)c(S(=O)(=O)O)c2)c2c1C(=O)c1ccccc1C2=O [Reactive Blue 2, reference compound] | – | inhibited Nsp15 using either substrate, without appreciable quenching | produced a fluorescent artifact | – | – | – | – | – | – | – | – | – | –
7 | Oc1c(Cl)cc(Cl)c(Cl)c1Cc1c(O)c(Cl)cc(Cl)c1Cl [hexachlorophene, reference compound] | – | inhibited Nsp15 using either substrate, without appreciable quenching | – | increase in Nsp15 activity | 1.23 ± 0.3 µM | – | – | Yes | Nsp15 activity was restored | significantly reduced viral titers | – | – | IC50 ([2]; IC50, Nsp15 activity): ~1 µM and 1.6 µM and 1 to 2 µM; Inhibition of native RNA substrate cleavage [3]: dose-dependent effects; Kinetic mechanism / predicted type of inhibition [5]: mixed mechanisms of inhibition; Km diff. vs DMSO [5]: Yes; Vmax (best-fit) ([5]; inhibitor 3µM): 0.24 µM/min; Vmax (best-fit) ([5]; inhibitor 6µM): 0.19 µM/min; Kinetic mechanism / predicted type of inhibition ([5]; listed as Hexachlorophene): Mixed; IC50 [7, 19]: 0.91 ± 0.044 µM; IC50 [7, 20]: ~1 µM; Inhibition of SARS-CoV-1 Nsp15 [12]: less potent
8 | CCC(CC)COC(=O)[C@H](C)N[P@](=O)(OC[C@H]1O[C@@](C#N)(c2ccc3c(N)ncnn23)[C@H](O)[C@@H]1O)Oc1ccccc1 [remdesivir] | – | – | – | – | – | – | – | – | – | significantly reduced viral titers | – | – | –
9 | CC1(C)CCC2=C(O1)c1ccccc1C(=O)C2=O [β-lapachone, reference compound] | – | inhibited Nsp15 using either substrate, without appreciable quenching | – | – | – | – | – | – | – | – | – | – | –
10 | Exebryl-1 | – | – | – | – | – | – | – | – | – | – | – | – | EC50 [14]: ~65 µM
